One experiment deals with human mOR (Homo sapiens (Human), UniProt P35372). Nature of the experiment: cell-based.
In the next experiment the target is kOR (OPRK1) (Homo sapiens (Human), UniProt P41145). Nature of the experiment: KOR β-Arrestin antagonist assay (Tango OPRK1-bla U2OS cells). In kind it is cell-based. An excerpt: KOR β-Arrestin Agonist and Antagonist assays were preformed using the Tango™ OPRK1-bla U2OS cells from Invitrogen and purchased from ThermoFisher, catalog number K1576.
The next experiment concerns the target human dOR (Homo sapiens (Human), UniProt P41143). Nature of the experiment: cell-based.
Where [1] appears, read: CHO Tag-lite human mOR stable cell line, forskolin 4 μM and DAMGO at EC90, read-out: mOR cAMP Antagonist Assay IC50.
[2] abbreviates: dOR cAMP Agonist Assay EC50, CHO Tag-lite human dOR stable cell line, forskolin.

In US11634396B2 (priority 2021, dated 2023) one finds IC50 and EC50 data, which are given here for eleven compounds.

Read-outs that look alike come from different tables or passages of the source.

human mOR, sequence (P35372 whole entry): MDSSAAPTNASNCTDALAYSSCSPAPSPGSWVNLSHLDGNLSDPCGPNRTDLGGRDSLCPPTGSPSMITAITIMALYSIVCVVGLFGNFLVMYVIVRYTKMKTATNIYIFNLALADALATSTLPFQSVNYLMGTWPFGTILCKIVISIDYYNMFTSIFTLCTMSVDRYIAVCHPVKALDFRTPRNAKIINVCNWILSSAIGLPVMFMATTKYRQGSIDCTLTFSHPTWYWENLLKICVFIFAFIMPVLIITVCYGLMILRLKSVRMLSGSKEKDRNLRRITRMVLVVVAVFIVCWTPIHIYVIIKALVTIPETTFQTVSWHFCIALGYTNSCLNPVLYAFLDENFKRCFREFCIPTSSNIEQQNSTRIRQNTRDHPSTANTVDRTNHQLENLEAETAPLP
kOR (OPRK1), sequence (P41145 whole entry): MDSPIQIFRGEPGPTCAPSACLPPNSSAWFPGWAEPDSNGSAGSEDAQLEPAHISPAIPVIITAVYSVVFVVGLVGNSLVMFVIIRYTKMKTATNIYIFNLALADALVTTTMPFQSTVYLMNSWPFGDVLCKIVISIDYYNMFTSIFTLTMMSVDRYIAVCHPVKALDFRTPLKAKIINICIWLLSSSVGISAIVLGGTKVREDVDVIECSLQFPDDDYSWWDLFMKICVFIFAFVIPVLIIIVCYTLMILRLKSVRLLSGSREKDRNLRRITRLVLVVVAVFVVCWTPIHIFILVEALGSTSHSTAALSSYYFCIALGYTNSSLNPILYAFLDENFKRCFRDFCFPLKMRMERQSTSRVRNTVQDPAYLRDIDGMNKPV
human dOR, sequence (P41143 whole entry): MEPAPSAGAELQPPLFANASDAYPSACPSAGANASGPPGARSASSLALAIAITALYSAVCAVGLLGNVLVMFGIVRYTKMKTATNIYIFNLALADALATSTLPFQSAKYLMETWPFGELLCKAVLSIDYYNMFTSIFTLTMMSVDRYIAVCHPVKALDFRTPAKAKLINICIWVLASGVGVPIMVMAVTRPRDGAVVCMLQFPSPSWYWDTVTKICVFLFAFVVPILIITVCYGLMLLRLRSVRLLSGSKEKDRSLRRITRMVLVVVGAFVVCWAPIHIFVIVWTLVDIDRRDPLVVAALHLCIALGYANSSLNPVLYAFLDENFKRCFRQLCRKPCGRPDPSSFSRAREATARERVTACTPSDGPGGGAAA

Take `Cc1cc(C(N)=O)cc(C)c1C[C@@H](CNC(=O)C1CC1c1ncccn1)N(C)C` (stereo partly drawn) [Compound 6, 4-((2S)-2-(dimethylamino)-3-(2-(pyrimidin-2-yl)cyclopropane-1-carboxamido)propyl)-3,5-dimethylbenzamide]: the IC50 on human mOR (setting [1]) and against kOR (OPRK1) was 300 to 3000 nM each time.

On to `Cc1ccc([C@H](CC(=O)NC[C@H](Cc2ccc(C(N)=O)c(F)c2Cl)N(C)C)C2(C(F)(F)F)CC2)cn1` [Compound 17, 3-chloro-4-[(2S)-2-(dimethylamino)-3-[(3S)-3-(6-methylpyridin-3-yl)-3-[1-(trifluoromethyl)cyclopropyl]propanamido]propyl]-2-fluorobenzamide], for which the IC50 was greater than 3000 nM at human mOR (setting [1]) and less than 300 nM on kOR (OPRK1).

`CN(C)[C@H](CNC(=O)C[C@H](c1cccnc1)C1(C(F)(F)F)CC1)Cc1ccc(C(N)=O)c(F)c1Cl` [Compound 18, 3-chloro-4-[(2S)-2-(dimethylamino)-3-[(3R)-3-(pyridin-3-yl)-3-[1-(trifluoromethyl)cyclopropyl]propanamido]propyl]-2-fluorobenzamide]: the IC50 on human mOR is greater than 3000 nM; against kOR (OPRK1), less than 300 nM.

Regarding `CN(C)[C@H](CNC(=O)CC(c1ncc(Cl)cn1)C1(C(F)(F)F)CC1)Cc1ccc(C(N)=O)c(F)c1Cl` (stereo partly drawn) [Compound 22, 3-chloro-4-[(2S)-3-[3-(5-chloropyrimidin-2-yl)-3-[1-(trifluoromethyl)cyclopropyl]propanamido]-2-(dimethylamino)propyl]-2-fluorobenzamide], the concentration for half-maximal inhibition (IC50) at human mOR (setting [1]) and against kOR (OPRK1) was less than 300 nM in each case.

`CNC(=O)c1ccc(C[C@@H](CNC(=O)C[C@@H](c2ccc(Cl)cn2)C2(C(F)(F)F)CC2)N(C)C)c(C)c1` [Compound 137, 4-((S)-3-((R)-3-(5-chloropyridin-2-yl)-3-(1-(trifluoromethyl)cyclopropyl)propanamido)-2-(dimethylamino)propyl)-N,3-dimethylbenzamide] yielded an IC50 on kOR (OPRK1) of less than 300 nM.

Regarding `CNC(=O)c1ccc(C[C@@H](CNC(=O)C[C@H](c2ccc(Cl)cn2)C2(C(F)(F)F)CC2)N(C)C)c(C)c1` [Compound 138, 4-((S)-3-((S)-3-(5-chloropyridin-2-yl)-3-(1-(trifluoromethyl)cyclopropyl)propanamido)-2-(dimethylamino)propyl)-N,3-dimethylbenzamide], on kOR (OPRK1), the IC50 was less than 300 nM.

On to `CN(C)[C@H](CNC(=O)CC(C)(C)c1ccccc1)Cc1ccc2[nH]ncc2c1` [Compound 221, (S)-N-(2-(dimethylamino)-3-(1H-indazol-5-yl)propyl)-3-methyl-3-phenylbutanamide], for which the EC50 at human dOR (setting [2]) was greater than 3000 nM. For the same compound, the IC50 at human mOR is less than 300 nM.

Take `CN(C)[C@H](CNC(=O)C[C@H](c1ccccc1)C1CC1)Cc1ccc(O)cc1Cl` [Compound 263, (S)-N-((S)-3-(2-chloro-4-hydroxyphenyl)-2-(dimethylamino)propyl)-3-cyclopropyl-3-phenylpropanamide]: at human dOR (setting [2]), the EC50 was less than 300 nM. Also, the IC50 on human mOR was less than 300 nM.

On to `CC(=O)Oc1ccc(C[C@@H](CNC(=O)C[C@H](C)c2ccccc2)N(C)C)cc1Cl` [Compound 275, 2-chloro-4-((S)-2-(dimethylamino)-3-((S)-3-phenylbutanamido)propyl)phenyl acetate], for which, on human dOR (setting [2]), the EC50 was less than 300 nM. Besides, the IC50 on human mOR was less than 300 nM.

With `CN1Cc2cc(O)ccc2C[C@H]1CNC(=O)C[C@H](c1ccccc1)C(C)(C)C` [Compound 323, (S)-N-(((S)-7-hydroxy-2-methyl-1,2,3,4-tetrahydroisoquinolin-3-yl)methyl)-4,4-dimethyl-3-phenylpentanamide], the EC50 at human dOR (setting [2]) is less than 300 nM. Moreover, on human mOR, the IC50 is less than 300 nM.

For the compound `CC(C)C[C@H](CC(=O)NC[C@H](Cc1ccc(-c2cn[nH]c2)cc1Cl)N(C)C)c1ccccc1` [Compound 326, (3R)-N-[(2S)-3-[2-chloro-4-(1H-pyrazol-4-yl)phenyl]-2-(dimethylamino)propyl]-5-methyl-3-phenylhexanamide], the EC50 at human dOR (read-out: dOR cAMP Agonist Assay EC50) is greater than 3000 nM. For the same compound, the IC50 at human mOR (read-out: mOR cAMP Antagonist Assay IC50) fell in the range of 300 to 3000 nM.
